Assay results as given in ChEMBL document CHEMBL3272349, “Quantitative structure-activity relationships of antimalarial and dihydrofolate reductase inhibition by quinazolines and 5-substituted benzyl-2,4-diaminopyrimidines” (J Med Chem, 1977).

Assays:
[1] = target: T1, Dihydrofolate reductase (Enterococcus faecium) (UniProt P00380)
T1 sequence (whole entry): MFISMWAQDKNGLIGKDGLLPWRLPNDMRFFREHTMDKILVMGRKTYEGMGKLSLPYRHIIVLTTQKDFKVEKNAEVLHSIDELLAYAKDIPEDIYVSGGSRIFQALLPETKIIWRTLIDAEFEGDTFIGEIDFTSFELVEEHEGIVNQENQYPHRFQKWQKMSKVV
Description: Inhibition of Streptococcus faecium dihydrofolate reductase using dihydrofolate as substrate

Plasmodium berghei [2] = assay: Antimalarial activity against Plasmodium berghei infected mouse assessed as suppression of parasitemia administered through diet for 6 days; type: functional
Plasmodium berghei [3] = assay: Antimalarial activity against Plasmodium berghei infected in po dosed mouse assessed as suppression of parasitemia; type: functional
Plasmodium berghei [4] = assay: Antimalarial activity against Plasmodium berghei infected in po dosed mouse assessed as suppression of parasitemia administered for 6 days; type: functional

In the case of `Nc1nc(N)c2c(Sc3ccc4ccccc4c3)cccc2n1`, the log(1/I50) [1] is reported as 7.25.
With `Nc1nc(N)c2cc(NCc3ccccc3N)ccc2n1` the “log(1/SD90)” value (Plasmodium berghei [2]) was 3.07.
`CCN(CC)c1nc(N(CC)CC)c2cc(NCc3ccc(Cl)c(Cl)c3)ccc2n1` was tested, and the “log(1/SD90)” value (Plasmodium berghei [2]) was 3.31.
`Cc1c(CNc2ccc(Cl)c(Cl)c2)ccc2nc(N)nc(N)c12` was tested, and the “log(1/SD90)” value (Plasmodium berghei [3]) was 6.02.
For `Oc1nc(S)nc2ccc(Sc3ccc4ccccc4c3)cc12`, the log(1/I50) [1] was 3.85.
Molecule `O=c1[nH]c(=S)c2cc(Sc3ccc4ccccc4c3)ccc2[nH]1` has a log(1/I50) [1] of 4.24.
Molecule `Nc1nc(N)c2c(S(=O)(=O)c3ccc(Cl)c(Cl)c3)cccc2n1` has a log(1/I50) [1] of 5.85.
For `CN(Cc1ccc(Cl)c(Cl)c1)c1ccc2nc(N)nc(N)c2c1`, the “log(1/SD90)” value (Plasmodium berghei [2]) was 6.34.
`Nc1nc(N)c2c([S+]([O-])c3ccc4ccccc4c3)cccc2n1` (stereo not given) gave a log(1/I50) [1] of 4.36.
With `Nc1nc(N)c2c(n1)CCN(Cc1ccccc1Cl)C2` the “log(1/SD90)” value (Plasmodium berghei [3]) was 3.73.
In the case of `Nc1nc(S)c2cc(Sc3ccc4ccccc4c3)ccc2n1`, the log(1/I50) [1] is reported as 6.1.
`Cc1c(NCc2ccc(Cl)c(Cl)c2)ccc2nc(N)nc(N)c12` was tested, and the “log(1/SD90)” value (Plasmodium berghei [2]) was 4.83.
Work on `Nc1nc(O)c2cc(CNc3ccc(C(=O)O)cc3)ccc2n1` yielded a log(1/I50) [1] of 5.74.
For `CCN(Cc1ccc(Cl)c(Cl)c1)c1ccc2nc(N)nc(N)c2c1`, the “log(1/SD90)” value (Plasmodium berghei [2]) was 6.
`Cc1c(N(C=O)Cc2ccc(Cl)c(Cl)c2)ccc2nc(N)nc(N)c12` was tested, and the “log(1/SD90)” value (Plasmodium berghei [3]) was 5.69.
`Nc1nc(N)c2cc(NCc3cccc(Br)c3)ccc2n1` was tested, and the “log(1/SD90)” value (Plasmodium berghei [2]) was 5.93.
`Nc1nc(O)c2cc(Sc3ccc(Cl)c(Cl)c3)ccc2n1` gave a log(1/I50) [1] of 5.92.
With `CN(C)c1nc(N(C)C)c2cc(NCc3ccc(Cl)c(Cl)c3)ccc2n1` the “log(1/SD90)” value (Plasmodium berghei [2]) was 4.21.
Work on `CCOC(=O)c1ccc(CNc2ccc3nc(N)nc(N)c3c2)cc1` yielded a log(1/I50) [1] of 7.34.
With `Nc1nc(N)c2c(n1)CCN(Cc1c(Cl)cccc1Cl)C2` the “log(1/SD90)” value (Plasmodium berghei [3]) was 4.36.
For `Nc1nc(N)c2cc(Oc3ccc(Cl)c(Cl)c3)ccc2n1`, the “log(1/SD90)” value (Plasmodium berghei [4]) was 4.52.
With `Nc1nc(N)c2cc(NCc3cccs3)ccc2n1` the “log(1/SD90)” value (Plasmodium berghei [2]) was 3.82.
Molecule `Nc1nc(N)c2c(/C=C/c3ccc4ccccc4c3)cccc2n1` has a log(1/I50) [1] of 7.12.
Molecule `CCOC(=O)c1ccc(CNc2ccc3nc(N)nc(N)c3c2C)cc1` has a log(1/I50) [1] of 8.85.
In the case of `CCCCNc1nc(NCCCC)c2cc(NCc3ccc(Cl)c(Cl)c3)ccc2n1`, the “log(1/SD90)” value (Plasmodium berghei [2]) is reported as 3.47.
`Nc1nc(N)c2c(CCc3ccc4ccccc4c3)cccc2n1` was tested, and the log(1/I50) [1] was 8.
With `Nc1nc(N)c2c(n1)CCN(Cc1ccccc1)C2` the “log(1/SD90)” value (Plasmodium berghei [3]) was 3.65.
In the case of `CCN(Cc1ccc(Cl)c(Cl)c1)c1ccc2nc(N)nc(N)c2c1C`, the “log(1/SD90)” value (Plasmodium berghei [2]) is reported as 5.2.
Molecule `Nc1nc(N)c2cc(S(=O)(=O)c3ccc(Cl)c(Cl)c3)ccc2n1` has a log(1/I50) [1] of 9.15.
In the case of `Cc1c(CNc2ccc(C(=O)NC(CC(=O)O)C(=O)O)cc2)ccc2nc(N)nc(N)c12` (stereo not given), the log(1/I50) [1] is reported as 8.6.
In the case of `Nc1nc(N)c2c(CSc3ccc(Cl)cc3)cccc2n1`, the log(1/I50) [1] is reported as 7.24.
For `CC(C)N(Cc1ccc(Cl)cc1)c1ccc2nc(N)nc(N)c2c1`, the “log(1/SD90)” value (Plasmodium berghei [2]) was 6.76.
`Nc1nc(O)c2cc(S(=O)(=O)c3ccc4ccccc4c3)ccc2n1` was tested, and the log(1/I50) [1] was 6.3.
Work on `Nc1ncnc2ccc(S(=O)(=O)c3ccc4ccccc4c3)cc12` yielded a log(1/I50) [1] of 3.51.
Work on `CCCCOC(=O)c1ccc(NCc2ccc3nc(N)nc(N)c3c2Cl)cc1` yielded a log(1/I50) [1] of 7.68.
In the case of `CCCN(Cc1ccc(Cl)c(Cl)c1)c1ccc2nc(N)nc(N)c2c1C`, the “log(1/SD90)” value (Plasmodium berghei [2]) is reported as 5.36.
With `Cc1c(CNc2ccc(Cl)cc2)ccc2nc(N)nc(N)c12` the “log(1/SD90)” value (Plasmodium berghei [3]) was 6.55.
`Nc1nc(O)c2c(Sc3ccc4ccccc4c3)cccc2n1` showed a log(1/I50) [1] of 4.68.
`Cc1c(CNc2ccc(C(=O)O)cc2)ccc2nc(N)nc(N)c12` showed a log(1/I50) [1] of 7.96.
In the case of `Nc1nc(N)c2cc(Oc3cc(C(F)(F)F)cc(C(F)(F)F)c3)ccc2n1`, the “log(1/SD90)” value (Plasmodium berghei [4]) is reported as 4.44.
Molecule `Nc1nc(O)c2c(S(=O)(=O)c3ccc4ccccc4c3)cccc2n1` has a log(1/I50) [1] of 5.85.
For `Nc1nc(O)c2cc(Sc3ccc4ccccc4c3)ccc2n1`, the log(1/I50) [1] was 6.74.
`Nc1nc(N)c2c(Sc3ccc(Cl)c(Cl)c3)cccc2n1` gave a log(1/I50) [1] of 6.54.
For `CCOC(=O)c1ccc(NCc2ccc3nc(N)nc(N)c3c2C)cc1`, the log(1/I50) [1] was 8.29.
In the case of `Nc1nc(O)c2cc(S(=O)(=O)c3ccc(Cl)c(Cl)c3)ccc2n1`, the log(1/I50) [1] is reported as 5.3.
`CCCCN(Cc1ccc(Cl)c(Cl)c1)c1ccc2nc(N)nc(N)c2c1` was tested, and the “log(1/SD90)” value (Plasmodium berghei [2]) was 5.06.
For `Nc1nc(N)c2cc(CN(N=O)c3ccc(Cl)c(Cl)c3)ccc2n1`, the “log(1/SD90)” value (Plasmodium berghei [3]) was 6.16.
With `Nc1nc(N)c2cc(CNc3ccc(Cl)cc3)ccc2n1` the “log(1/SD90)” value (Plasmodium berghei [3]) was 5.2.
For `Nc1nc(N)c2c(n1)CCN(Cc1ccc(Cl)cc1Cl)C2`, the “log(1/SD90)” value (Plasmodium berghei [3]) was 4.4.
For `Nc1nc(N)c2cc(N(Cc3ccc(Cl)c(Cl)c3)N=O)cnc2n1`, the “log(1/SD90)” value (Plasmodium berghei [2]) was 4.48.
In the case of `Nc1nc(N)c2cc(-n3cccc3)ccc2n1`, the “log(1/SD90)” value (Plasmodium berghei [3]) is reported as 4.29.
For `CN(C)c1nc(N)c2cc(NCc3ccccc3)ccc2n1`, the “log(1/SD90)” value (Plasmodium berghei [2]) was 3.75.
`Nc1nc(N)c2cc(CNc3ccc(C(=O)O)cc3)ccc2n1` gave a log(1/I50) [1] of 8.8.
`Nc1nc(N)c2c(n1)CCN(Cc1ccc(Cl)c(Cl)c1)C2` was tested, and the “log(1/SD90)” value (Plasmodium berghei [3]) was 4.92.
`Nc1nc(N)c2c(CSc3ccc4ccccc4c3)cccc2n1` gave a log(1/I50) [1] of 7.55.
